Source: ChEMBL document CHEMBL6127034, “Design, synthesis and biological evaluation of a novel PAK1 degrader for the treatment of triple negative breast cancer” (Bioorg Med Chem, 2024)

Legend:
MDA-MB-231 = assay: Antiproliferative activity against human MDA-MB-231 cells incubated for 48 hrs by MTT assay; type: functional, cell-based; settings: MDA-MB-231, 48 h
[1] = molecular target: T1, von Hippel-Lindau disease tumor suppressor/Serine/threonine-protein kinase PAK 1 (Homo sapiens, UniProt Q13153+P40337); assay: PROTAC activity at VHL/PAK1 in human MDA-MB-231 cells assessed as induction of protein degradation at 2.5 uM incubated for 48 hrs by Western blot analysis relative to control; type: cell-based
[2] = molecular target: T1, von Hippel-Lindau disease tumor suppressor/Serine/threonine-protein kinase PAK 1; assay: PROTAC activity at VHL/PAK1 in human MDA-MB-231 cells assessed as fold change in protein expression at 2.5 uM incubated for 48 hrs by Western blot analysis relative to control; type: cell-based
[3] = molecular target: T2, Protein cereblon/Serine/threonine-protein kinase PAK 1 (Homo sapiens) (UniProt Q13153+Q96SW2); assay: PROTAC activity at CRBN/PAK1 in human MDA-MB-231 cells assessed as induction of protein degradation at 2.5 uM incubated for 48 hrs by Western blot analysis relative to control; type: cell-based
[4] = molecular target: T2, Protein cereblon/Serine/threonine-protein kinase PAK 1 (Homo sapiens); assay: PROTAC activity at CRBN/PAK1 in human MDA-MB-231 cells assessed as fold change in protein expression at 2.5 uM incubated for 48 hrs by Western blot analysis relative to control; type: cell-based
[5] = molecular target: T1, von Hippel-Lindau disease tumor suppressor/Serine/threonine-protein kinase PAK 1; assay: PROTAC activity at VHL/PAK1 in human MDA-MB-231 cells assessed as induction of protein degradation at 0.1 uM incubated for 48 hrs by Western blot analysis relative to control; type: cell-based

T1 sequence (Q13153 2-545 limits assumed): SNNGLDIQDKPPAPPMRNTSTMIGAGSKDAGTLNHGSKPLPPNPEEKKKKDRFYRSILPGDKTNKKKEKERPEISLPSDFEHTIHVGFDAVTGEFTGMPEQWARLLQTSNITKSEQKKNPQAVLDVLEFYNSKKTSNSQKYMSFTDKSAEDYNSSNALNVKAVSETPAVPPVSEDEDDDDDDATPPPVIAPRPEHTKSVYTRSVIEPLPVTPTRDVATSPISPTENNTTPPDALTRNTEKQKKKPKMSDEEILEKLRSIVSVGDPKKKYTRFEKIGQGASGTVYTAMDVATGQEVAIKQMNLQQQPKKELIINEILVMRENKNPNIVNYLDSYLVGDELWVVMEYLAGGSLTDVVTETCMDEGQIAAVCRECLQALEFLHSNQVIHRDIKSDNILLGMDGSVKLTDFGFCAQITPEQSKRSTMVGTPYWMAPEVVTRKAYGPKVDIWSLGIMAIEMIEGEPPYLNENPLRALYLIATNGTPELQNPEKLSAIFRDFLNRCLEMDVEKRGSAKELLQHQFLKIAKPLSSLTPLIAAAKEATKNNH
T1 sequence (P40337 whole entry partner): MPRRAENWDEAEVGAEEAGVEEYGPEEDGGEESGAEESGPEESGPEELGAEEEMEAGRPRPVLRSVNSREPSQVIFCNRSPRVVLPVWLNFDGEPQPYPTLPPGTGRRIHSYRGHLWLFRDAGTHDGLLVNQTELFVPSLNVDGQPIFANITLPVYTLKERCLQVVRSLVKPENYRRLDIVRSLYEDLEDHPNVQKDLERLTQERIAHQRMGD
T2 sequence (Q13153 whole entry, looked up): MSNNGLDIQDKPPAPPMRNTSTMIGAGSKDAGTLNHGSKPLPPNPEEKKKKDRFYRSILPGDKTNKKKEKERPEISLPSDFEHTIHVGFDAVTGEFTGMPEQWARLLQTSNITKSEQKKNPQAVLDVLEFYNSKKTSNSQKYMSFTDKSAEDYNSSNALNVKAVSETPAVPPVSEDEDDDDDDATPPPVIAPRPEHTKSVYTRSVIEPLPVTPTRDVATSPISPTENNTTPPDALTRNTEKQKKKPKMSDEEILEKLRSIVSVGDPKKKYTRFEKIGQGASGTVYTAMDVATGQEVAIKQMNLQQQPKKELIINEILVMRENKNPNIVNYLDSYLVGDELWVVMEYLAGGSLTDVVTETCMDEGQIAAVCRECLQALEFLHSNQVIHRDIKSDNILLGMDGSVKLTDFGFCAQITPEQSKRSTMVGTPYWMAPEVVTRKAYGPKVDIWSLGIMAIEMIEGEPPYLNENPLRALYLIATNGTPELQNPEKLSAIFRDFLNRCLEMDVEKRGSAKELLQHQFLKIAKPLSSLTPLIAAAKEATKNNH
T2 sequence (Q96SW2 whole entry, looked up): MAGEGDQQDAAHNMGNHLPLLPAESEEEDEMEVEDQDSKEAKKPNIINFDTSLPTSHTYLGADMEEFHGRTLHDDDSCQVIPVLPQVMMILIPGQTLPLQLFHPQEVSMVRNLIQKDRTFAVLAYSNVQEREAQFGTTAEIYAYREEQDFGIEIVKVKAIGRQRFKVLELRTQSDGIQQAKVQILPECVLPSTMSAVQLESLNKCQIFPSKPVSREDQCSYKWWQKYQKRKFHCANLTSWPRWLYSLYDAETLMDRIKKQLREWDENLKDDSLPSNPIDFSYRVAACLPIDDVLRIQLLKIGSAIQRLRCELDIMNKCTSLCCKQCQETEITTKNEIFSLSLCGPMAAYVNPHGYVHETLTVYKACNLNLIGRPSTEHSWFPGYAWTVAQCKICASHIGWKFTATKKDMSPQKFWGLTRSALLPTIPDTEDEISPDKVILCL

## Cc1ncsc1-c1ccc([C@H](C)NC(=O)[C@@H]2C[C@@H](O)CN2C(=O)[C@@H](NC(=O)CCCc2cn(CCCCCCn3c(=O)c(-c4ccc(Cl)cc4Cl)cc4cnc(NC5CC5)nc43)nn2)C(C)(C)C)cc1
MDA-MB-231
  IC50: > 50 µM
[1]
  Activity: 29.1%
[2]
  fold change (FC): 0.709

## Cc1ncsc1-c1ccc([C@H](C)NC(=O)[C@@H]2C[C@@H](O)CN2C(=O)[C@@H](NC(=O)CCCCc2cn(CCOCCOCCOCCn3c(=O)c(-c4ccc(Cl)cc4Cl)cc4cnc(NC5CC5)nc43)nn2)C(C)(C)C)cc1
MDA-MB-231
  IC50: > 50 µM
[1]
  Activity: 12%
[2]
  fold change (FC): 0.88

## Cc1ncsc1-c1ccc([C@H](C)NC(=O)[C@@H]2C[C@@H](O)CN2C(=O)[C@@H](NC(=O)CCc2cn(CCOCCOCCOCCn3c(=O)c(-c4ccc(Cl)cc4Cl)cc4cnc(NC5CC5)nc43)nn2)C(C)(C)C)cc1
MDA-MB-231
  IC50: > 50 µM
[1]
  Activity: 7.1%
[2]
  fold change (FC): 0.929

## Cc1ncsc1-c1ccc([C@H](C)NC(=O)[C@@H]2C[C@@H](O)CN2C(=O)[C@@H](NC(=O)CCc2cn(CCCCn3c(=O)c(-c4ccc(Cl)cc4Cl)cc4cnc(NC5CC5)nc43)nn2)C(C)(C)C)cc1
MDA-MB-231
  IC50: > 50 µM
[1]
  Activity: 10.4%
[2]
  fold change (FC): 0.896

## Cc1ncsc1-c1ccc([C@H](C)NC(=O)[C@@H]2C[C@@H](O)CN2C(=O)[C@@H](NC(=O)CCCCc2cn(CCOCCn3c(=O)c(-c4ccc(Cl)cc4Cl)cc4cnc(NC5CC5)nc43)nn2)C(C)(C)C)cc1
MDA-MB-231
  IC50: 35.8 µM
[1]
  Activity: 30.1%
[2]
  fold change (FC): 0.699

## CNc1ncc2cc(-c3ccc(Cl)cc3Cl)c(=O)n(CCCCCn3cc(CNc4cccc5c4C(=O)N(C4CCC(=O)NC4=O)C5=O)nn3)c2n1 (centres undefined)
[3]
  Activity: -5.4%
MDA-MB-231
  IC50: > 50 µM
[4]
  fold change (FC): 0.97

## Cc1ncsc1-c1ccc([C@H](C)NC(=O)[C@@H]2C[C@@H](O)CN2C(=O)[C@@H](NC(=O)CCCc2cn(CCOCCOCCOCCn3c(=O)c(-c4ccc(Cl)cc4Cl)cc4cnc(NC5CC5)nc43)nn2)C(C)(C)C)cc1
MDA-MB-231
  IC50: > 50 µM
[1]
  Activity: 5.1%
[2]
  fold change (FC): 0.949

## O=C1CCC(N2C(=O)c3cccc(NCc4cn(CCCCCCn5c(=O)c(-c6ccc(Cl)cc6Cl)cc6cnc(NC7CC7)nc65)nn4)c3C2=O)C(=O)N1 (centres undefined)
[3]
  Activity: 34.7%
MDA-MB-231
  IC50: 32.1 µM
[4]
  fold change (FC): 0.761

## O=C1CCC(N2C(=O)c3cccc(NCc4cn(CCOCCn5c(=O)c(-c6ccc(Cl)cc6Cl)cc6cnc(NC7CC7)nc65)nn4)c3C2=O)C(=O)N1 (centres undefined)
[3]
  Activity: 1%
MDA-MB-231
  IC50: > 50 µM
[4]
  fold change (FC): 0.99

## O=C1CCC(N2C(=O)c3cccc(NCc4cn(CCCCn5c(=O)c(-c6ccc(Cl)cc6Cl)cc6cnc(NC7CC7)nc65)nn4)c3C2=O)C(=O)N1 (centres undefined)
[3]
  Activity: 23.9%
MDA-MB-231
  IC50: 34.6 µM
[4]
  fold change (FC): 0.761

## CNc1ncc2cc(-c3ccc(Cl)cc3Cl)c(=O)n(CCOCCOCCOCCn3cc(CNc4cccc5c4C(=O)N(C4CCC(=O)NC4=O)C5=O)nn3)c2n1 (centres undefined)
[3]
  Activity: 1.2%
MDA-MB-231
  IC50: > 50 µM
[4]
  fold change (FC): 0.988

## CNc1ncc2cc(-c3ccc(Cl)cc3Cl)c(=O)n(CCOCCOCCn3cc(CNc4cccc5c4C(=O)N(C4CCC(=O)NC4=O)C5=O)nn3)c2n1 (centres undefined)
[3]
  Activity: 4.1%
MDA-MB-231
  IC50: > 50 µM
[4]
  fold change (FC): 0.959

## Cc1ncsc1-c1ccc([C@H](C)NC(=O)[C@@H]2C[C@@H](O)CN2C(=O)[C@@H](NC(=O)CCc2cn(CCOCCOCCn3c(=O)c(-c4ccc(Cl)cc4Cl)cc4cnc(NC5CC5)nc43)nn2)C(C)(C)C)cc1
MDA-MB-231
  IC50: > 50 µM
[1]
  Activity: 3.8%
[2]
  fold change (FC): 0.962

## Cc1ncsc1-c1ccc([C@H](C)NC(=O)[C@@H]2C[C@@H](O)CN2C(=O)[C@@H](NC(=O)CCCc2cn(CCCCn3c(=O)c(-c4ccc(Cl)cc4Cl)cc4cnc(NC5CC5)nc43)nn2)C(C)(C)C)cc1
MDA-MB-231
  IC50: 33.2 µM
[1]
  Activity: 32.1%
[2]
  fold change (FC): 0.679

## CNc1ncc2cc(-c3ccc(Cl)cc3Cl)c(=O)n(CCOCCn3cc(CNc4cccc5c4C(=O)N(C4CCC(=O)NC4=O)C5=O)nn3)c2n1 (centres undefined)
[3]
  Activity: 8.2%
MDA-MB-231
  IC50: > 50 µM
[4]
  fold change (FC): 0.918

## CNc1ncc2cc(-c3ccc(Cl)cc3Cl)c(=O)n(CCCCn3cc(CNc4cccc5c4C(=O)N(C4CCC(=O)NC4=O)C5=O)nn3)c2n1 (centres undefined)
[3]
  Activity: 2.8%
MDA-MB-231
  IC50: > 50 µM
[4]
  fold change (FC): 0.583

## Cc1ncsc1-c1ccc([C@H](C)NC(=O)[C@@H]2C[C@@H](O)CN2C(=O)[C@@H](NC(=O)CCc2cn(CCCCCn3c(=O)c(-c4ccc(Cl)cc4Cl)cc4cnc(NC5CC5)nc43)nn2)C(C)(C)C)cc1
MDA-MB-231
  IC50: > 50 µM
[1]
  Activity: 17.4%
[2]
  fold change (FC): 0.826

## Cc1ncsc1-c1ccc([C@H](C)NC(=O)[C@@H]2C[C@@H](O)CN2C(=O)[C@@H](NC(=O)CCCc2cn(CCCCCCCn3c(=O)c(-c4ccc(Cl)cc4Cl)cc4cnc(NC5CC5)nc43)nn2)C(C)(C)C)cc1
MDA-MB-231
  IC50: 2.01 µM
[5]
  Activity: 41%
[1]
  Activity: 68.2%
[2]
  fold change (FC): 0.318

## Cc1ncsc1-c1ccc([C@H](C)NC(=O)[C@@H]2C[C@@H](O)CN2C(=O)[C@@H](NC(=O)CCCCc2cn(CCCCn3c(=O)c(-c4ccc(Cl)cc4Cl)cc4cnc(NC5CC5)nc43)nn2)C(C)(C)C)cc1
MDA-MB-231
  IC50: > 50 µM
[1]
  Activity: 14.4%
[2]
  fold change (FC): 0.856

## O=C1CCC(N2C(=O)c3cccc(NCc4cn(CCOCCOCCn5c(=O)c(-c6ccc(Cl)cc6Cl)cc6cnc(NC7CC7)nc65)nn4)c3C2=O)C(=O)N1 (centres undefined)
[3]
  Activity: 23.9%
MDA-MB-231
  IC50: > 50 µM
[4]
  fold change (FC): 1.05

## Cc1ncsc1-c1ccc([C@H](C)NC(=O)[C@@H]2C[C@@H](O)CN2C(=O)[C@@H](NC(=O)CCCc2cn(CCCCCn3c(=O)c(-c4ccc(Cl)cc4Cl)cc4cnc(NC5CC5)nc43)nn2)C(C)(C)C)cc1
MDA-MB-231
  IC50: 16.3 µM
[5]
  Activity: 11.9%
[1]
  Activity: 45.5%
[2]
  fold change (FC): 0.545

## Cc1ncsc1-c1ccc([C@H](C)NC(=O)[C@@H]2C[C@@H](O)CN2C(=O)[C@@H](NC(=O)CCCCc2cn(CCOCCOCCn3c(=O)c(-c4ccc(Cl)cc4Cl)cc4cnc(NC5CC5)nc43)nn2)C(C)(C)C)cc1
MDA-MB-231
  IC50: > 50 µM
[1]
  Activity: -4.8%
[2]
  fold change (FC): 1.05

## O=C1CCC(N2C(=O)c3cccc(NCc4cn(CCCCCn5c(=O)c(-c6ccc(Cl)cc6Cl)cc6cnc(NC7CC7)nc65)nn4)c3C2=O)C(=O)N1 (centres undefined)
[3]
  Activity: 19.2%
MDA-MB-231
  IC50: > 50 µM
[4]
  fold change (FC): 0.809

## Cc1ncsc1-c1ccc([C@H](C)NC(=O)[C@@H]2C[C@@H](O)CN2C(=O)[C@@H](NC(=O)CCCc2cn(CCOCCn3c(=O)c(-c4ccc(Cl)cc4Cl)cc4cnc(NC5CC5)nc43)nn2)C(C)(C)C)cc1
MDA-MB-231
  IC50: 27.1 µM
[1]
  Activity: 31.7%
[2]
  fold change (FC): 0.683

## Cc1ncsc1-c1ccc([C@H](C)NC(=O)[C@@H]2C[C@@H](O)CN2C(=O)[C@@H](NC(=O)CCCCc2cn(CCCCCCCn3c(=O)c(-c4ccc(Cl)cc4Cl)cc4cnc(NC5CC5)nc43)nn2)C(C)(C)C)cc1
MDA-MB-231
  IC50: > 50 µM
[1]
  Activity: 18.2%
[2]
  fold change (FC): 0.812

## Cc1ncsc1-c1ccc([C@H](C)NC(=O)[C@@H]2C[C@@H](O)CN2C(=O)[C@@H](NC(=O)CCCc2cn(CCOCCOCCn3c(=O)c(-c4ccc(Cl)cc4Cl)cc4cnc(NC5CC5)nc43)nn2)C(C)(C)C)cc1
MDA-MB-231
  IC50: > 50 µM
[1]
  Activity: 2.7%
[2]
  fold change (FC): 0.973

## Cc1ncsc1-c1ccc([C@H](C)NC(=O)[C@@H]2C[C@@H](O)CN2C(=O)[C@@H](NC(=O)CCc2cn(CCOCCn3c(=O)c(-c4ccc(Cl)cc4Cl)cc4cnc(NC5CC5)nc43)nn2)C(C)(C)C)cc1
MDA-MB-231
  IC50: 16.9 µM
[5]
  Activity: 15.7%
[1]
  Activity: 44.3%
[2]
  fold change (FC): 0.557

## Cc1ncsc1-c1ccc([C@H](C)NC(=O)[C@@H]2C[C@@H](O)CN2C(=O)[C@@H](NC(=O)CCc2cn(CCCCCCn3c(=O)c(-c4ccc(Cl)cc4Cl)cc4cnc(NC5CC5)nc43)nn2)C(C)(C)C)cc1
MDA-MB-231
  IC50: 3.78 µM
[5]
  Activity: 39.1%
[1]
  Activity: 67.1%
[2]
  fold change (FC): 0.329

## Cc1ncsc1-c1ccc([C@H](C)NC(=O)[C@@H]2C[C@@H](O)CN2C(=O)[C@@H](NC(=O)CCCCc2cn(CCCCCCn3c(=O)c(-c4ccc(Cl)cc4Cl)cc4cnc(NC5CC5)nc43)nn2)C(C)(C)C)cc1
MDA-MB-231
  IC50: > 50 µM
[1]
  Activity: 24.6%
[2]
  fold change (FC): 0.754

## O=C1CCC(N2C(=O)c3cccc(NCc4cn(CCOCCOCCOCCn5c(=O)c(-c6ccc(Cl)cc6Cl)cc6cnc(NC7CC7)nc65)nn4)c3C2=O)C(=O)N1 (centres undefined)
[3]
  Activity: -6.9%
MDA-MB-231
  IC50: > 50 µM
[4]
  fold change (FC): 1.07
